Literature values as cited in PMC6008465 (British Journal of Cancer, 2018).

System: patients
Set-up: method as in Mekinist (trametinib) tablets package insert, Novartis 2017
Conditions: oral; ref Mekinist (trametinib) tablets package insert, Novartis 2017; cited from earlier work

CC(=O)Nc1cccc(-n2c(=O)n(C3CC3)c(=O)c3c(Nc4ccc(I)cc4F)n(C)c(=O)c(C)c32)c1 [trametinib]
Adverse events associated in clinical trials: retinal pigment epithelial detachment, retinal vein occlusion, interstitial lung disease, skin toxicity, and cardiomyopathy
